Consider ten compounds from paper PMC10192561 (Frontiers in Pharmacology, 2023).

The target of data set [1] is recombinant human CYP3A4 (rCYP3A4) (Homo sapiens, UniProt P08684). The data set can be described thus: Inhibition of flumatinib metabolism in recombinant human CYP3A4 incubation (UPLC-MS/MS).
The target of data set [2] is flumatinib metabolism in HLM (CYP3A4; ketoconazole as positive control) (Homo sapiens, UniProt P08684). In words: Inhibition of flumatinib metabolism in human liver microsome incubation (UPLC-MS/MS). To be noted: human liver microsomes, probe flumatinib […] (at Km).
Sequence of flumatinib metabolism in HLM (CYP3A4; ketoconazole as positive control) (P08684 2-503): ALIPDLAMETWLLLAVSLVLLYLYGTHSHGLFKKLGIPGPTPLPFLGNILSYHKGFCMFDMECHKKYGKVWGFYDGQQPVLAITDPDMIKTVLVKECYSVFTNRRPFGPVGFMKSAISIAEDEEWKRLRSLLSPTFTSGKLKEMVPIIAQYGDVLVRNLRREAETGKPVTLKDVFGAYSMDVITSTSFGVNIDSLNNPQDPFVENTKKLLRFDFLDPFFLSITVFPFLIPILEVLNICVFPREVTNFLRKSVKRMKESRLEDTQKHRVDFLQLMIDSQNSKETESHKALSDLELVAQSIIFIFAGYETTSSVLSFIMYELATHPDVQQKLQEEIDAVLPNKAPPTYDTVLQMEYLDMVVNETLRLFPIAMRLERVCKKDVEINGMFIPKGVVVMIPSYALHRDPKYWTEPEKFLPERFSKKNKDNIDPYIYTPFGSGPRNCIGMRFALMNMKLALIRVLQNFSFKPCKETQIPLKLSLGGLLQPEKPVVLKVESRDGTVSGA
The test system of data set [3] is flumatinib metabolism in RLM. The data set can be described thus: Inhibition of flumatinib metabolism in rat liver microsome incubation (UPLC-MS/MS). As to conditions: rat, rat liver microsomes.
For data set [4], the system named is rat liver microsomes (RLM). The data set is described as above. To be noted: flumatinib metabolism in RLM.
Data set [5] addresses flumatinib metabolism in HLM (Homo sapiens, UniProt P08684). The data set can be described thus: Inhibition of flumatinib metabolism in human liver microsome incubation (UPLC-MS/MS).
On the set-up of data set [6]: method as in McCarthy et al., 2018. As to conditions: co-administration with isavuconazole; ref McCarthy et al., 2018; cited from earlier work.
Data set [7] in a line: Pharmacokinetics of flumatinib and M1 in SD rats with or without isavuconazole. As to conditions: for AUC(0-inf) / AUC(0-t) / Cmax / Tmax / half-life / CL/F / MRT last / MRT inf: male, Sprague-Dawley, rat, plasma, po, 60 mg/kg; for CL/F: read-out: CLz/F (converted); for MRT last: read-out: MRT0→t; for MRT inf: read-out: MRT0→∞. It counts as in vivo, Sprague-Dawley male rats. How it is done: Quantification of the analytes was made by using a Waters XEVO TQS triple quadruple mass spectrometer with a multiple reaction monitoring (MRM) in positive ion mode. The mobile phase was consisted of 0.1% formic acid aqueous solution (A) and acetonitrile (B) at a flow rate of 0.4 mL/min. An elution program of 90% A (0–0.5 min), 90%–10% A (0.5–1.0 min), 10% A (1–1.5 min), 10%–90% A (1.5–1.6 min) and 90% A (1.6–2 min) was performed. The whole elution took 2 min. During the analysis, the temperature of the column and autosampler rack was controlled at 40°C and 10°C, respectively.
Sprague–Dawley male rats (SD male rats, 200 ± 20 g) were purchased from the Animal Experimental Center of The First Affiliated Hospital of Wenzhou Medical University (Zhejiang, China). […] The rats in both groups started fasting for 12 h ahead of the experiment, but were free to water. […] Tail vein blood samples were collected from rats in both groups at multiple time points (0.67, 1, 1.5, 2, 3, 4, 6, 8, 12, and 24 h). Subsequently, an additional 300 μL acetonitrile and 20 μL dasatinib (200 ng/mL) were added to 100 μL plasma. Then the mixture was vortexed to mix thoroughly for 2 min and centrifuged at 13,000 rpm for 10 min to obtain the final supernatant for UPLC-MS/MS analysis.
IC50 and enzyme kinetic parameters were obtained using GraphPad Prism 8.0 software (GraphPad software Inc., CA, United States). Non-compartmental analysis was performed by using Drugs and Statistics (DAS) software (version 3.0 software, Shanghai University of Traditional Chinese Medicine, China) to obtain pharmacokinetic profiles. Mean plasma concentration-time curves were generated using Origin 8.0, and the parameters were statistically investigated between groups using independent samples t-test by SPSS 24.0 software (SPSS Inc., Chicago, IL, United States). All data were expressed as mean ± SD and p < 0.05 was considered statistically significant.

The test system of data set [8] is rat liver microsomes (RLM). The data set can be described thus: Michaelis-Menten kinetics of flumatinib metabolism in RLM. As to conditions: flumatinib as substrate, RLM 0.4 mg/mL. The class given is in vitro ADME. As for the experimental part: An in vitro liver microsome incubation system was set up, then the drug was added to the system and incubated for […] as to determine the metabolism of the drug by the microsomes. […] The NADPH-free mixture was preincubated at 37°C for 5 min, followed by the addition of 1 mM NADPH to activate the reaction. The mixture was incubated at 37 °C for 40 min until 20 μL of IS solution (200 ng/mL) and 400 μL of cool acetonitrile were added. It was then centrifuged at 13,000 rpm for 5 min. After that, 100 μL of the supernatant was taken to conduct the analysis by UPLC-MS/MS.

Setting [9] is: probe flumatinib (2.17 µM in RLM, at Km).
Setting [10] is: group A: 60 mg/kg flumatinib dosed orally alone.
Setting [11] is: group B: 20 mg/kg isavuconazole and 60 mg/kg flumatinib dosed orally.
The mark [12] stands for this setting: with 20 mg/kg isavuconazole vs flumatinib alone.

“Also recorded” adds a separate entry of the source. Read-outs that look alike come from different tables or passages of the source.

Sequence of flumatinib metabolism in HLM (P08684 2-503): as above
Sequence of recombinant human CYP3A4 (rCYP3A4) (P08684 whole entry): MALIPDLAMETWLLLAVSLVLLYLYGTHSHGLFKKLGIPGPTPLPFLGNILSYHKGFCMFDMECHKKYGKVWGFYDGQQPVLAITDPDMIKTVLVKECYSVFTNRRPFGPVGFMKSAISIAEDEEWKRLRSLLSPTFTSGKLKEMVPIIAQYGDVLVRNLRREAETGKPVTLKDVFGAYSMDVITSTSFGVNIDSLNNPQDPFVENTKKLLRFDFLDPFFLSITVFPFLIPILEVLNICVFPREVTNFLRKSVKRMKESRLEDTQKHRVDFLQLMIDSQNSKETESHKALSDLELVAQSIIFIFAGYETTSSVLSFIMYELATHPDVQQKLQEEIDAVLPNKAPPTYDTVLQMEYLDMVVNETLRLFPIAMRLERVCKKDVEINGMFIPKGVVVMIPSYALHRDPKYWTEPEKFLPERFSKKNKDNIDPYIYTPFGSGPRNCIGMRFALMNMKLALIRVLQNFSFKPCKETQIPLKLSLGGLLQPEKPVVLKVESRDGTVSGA

In the case of `C[C@@H](c1nc(-c2ccc(C#N)cc2)cs1)[C@](O)(Cn1cncn1)c1cc(F)ccc1F` [isavuconazole], in data set [1], the Inhibition type result is “mixed inhibitory mechanisms; also recorded: mixed type; also recorded: a mixture of competitive and non-competitive inhibition; also recorded: Mixed inhibition”; the α is given as 0.71. Further, in data set [2], the half-maximal inhibitory concentration (IC50) at 40 min came out at 6.66 µM. Moreover, in data set [3] (probe flumatinib 2.17 µM (at Km)), the IC50 at 40 min worked out at 0.62 µM. Moreover, in data set [4], the Inhibition type entry was “mixed inhibitory mechanisms; also recorded: mixed type; also recorded: a mixture of competitive and non-competitive inhibition; also recorded: Mixed inhibition”; the Ki was 1.44 µM; the α is 0.52.

In the case of `CC[C@@H]([C@H](C)O)n1ncn(-c2ccc(N3CCN(c4ccc(OC[C@@H]5CO[C@@](Cn6cncn6)(c6ccc(F)cc6F)C5)cc4)CC3)cc2)c1=O` [posaconazole], the half-inhibitory concentration (IC50) at 40 min stood at 1.72 µM in data set [5] (human liver microsomes, probe flumatinib ([…] in HLM, at Km)) and 1.53 µM in data set [3] (setting [9]).

As for `OC(Cn1cncn1)(Cn1cncn1)c1ccc(F)cc1F` [fluconazole], the IC50 at 40 min in data set [5] was determined as 92.6 µM; in data set [3] (setting [9]), 24.8 µM.

In the case of `CO[C@H]1C[C@@H]2CC[C@@H](C)[C@@](O)(O2)C(=O)C(=O)N2CCCC[C@H]2C(=O)O[C@H]([C@H](C)C[C@@H]2CC[C@@H](O)[C@H](OC)C2)CC(=O)[C@H](C)/C=C(\C)[C@@H](O)[C@@H](OC)C(=O)[C@H](C)C[C@H](C)/C=C/C=C/C=C/1C` [sirolimus], the “AUC increase when combined with isavuconazole” value in data set [6] is given as 84%.

On to `CC(=O)N1CCN(c2ccc(OCC3COC(Cn4ccnc4)(c4ccc(Cl)cc4Cl)O3)cc2)CC1` (stereo not drawn) [ketoconazole], for which, in data set [4], the Inhibition type result is recorded as “mixed inhibitory mechanisms; also recorded: Mixed inhibition” and affinity was put at a Ki of 0.33 µM.

Turning to `CCC(C)n1ncn(-c2ccc(N3CCN(c4ccc(OCC5COC(Cn6cncn6)(c6ccc(Cl)cc6Cl)O5)cc4)CC3)cc2)c1=O` (stereo not drawn) [itraconazole], the IC50 at 40 min in data set [5] is 11.6 µM; in data set [3] (setting [9]) it was 1.06 µM.

In the case of `Cc1ncc(NC(=O)c2ccc(CN3CCNCC3)c(C(F)(F)F)c2)cc1Nc1nccc(-c2cccnc2)n1` [M1, N-desmethyl flumatinib], in data set [7] (combination vs control group), the “effect of isavuconazole on pharmacokinetic parameters of the metabolite” value is “no effect; also recorded: No statistical significances”. For the same compound, in data set [7] (setting [10]), the total exposure AUC(0-inf) came out at 314 ± 134 ng·h/mL, the AUC(0-t) was found to be 282 ± 135 ng·h/mL, the Cmax came to 19.9 ± 32.8 ng/mL and the Tmax amounted to 2.6 ± 1.14 h. In data set [7] (setting [10]), the half-life was 5.28 ± 1.24 h, the CL/F was 3940 mL/min/kg, the MRT last amounted to 6.73 ± 1.68 h and the MRT inf worked out at 8.86 ± 1.39 h. In data set [7] (setting [11]), the total exposure AUC(0-inf) stood at 395 ± 63.1 ng·h/mL, the AUC(0-t) is 352 ± 49.8 ng·h/mL, the Cmax worked out at 31.9 ± 3.98 ng/mL and the Tmax came to 5 ± 2.45 h. For the same compound, in data set [7] (setting [11]), the half-life was 7.29 ± 2.01 h, the CL/F was 2580 mL/min/kg, the MRT last is 8.2 ± 0.19 h and the MRT inf was determined as 11.2 ± 1.53 h.

Turning to `C=CC[C@@H]1/C=C(\C)C[C@H](C)C[C@H](OC)[C@H]2O[C@@](O)(C(=O)C(=O)N3CCCC[C@H]3C(=O)O[C@H](/C(C)=C/[C@@H]3CC[C@@H](O)[C@H](OC)C3)[C@H](C)[C@@H](O)CC1=O)[C@H](C)C[C@@H]2OC` [tacrolimus], in data set [6], the “AUC increase when combined with isavuconazole” value is 125%.

In the case of `Cc1ncc(NC(=O)c2ccc(CN3CCN(C)CC3)c(C(F)(F)F)c2)cc1Nc1nccc(-c2cccnc2)n1` [flumatinib], in data set [7] (setting [10]), the AUC(0-inf) came to 3040 ± 664 ng·h/mL, the area under the curve AUC(0-t) came out at 2750 ± 887 ng·h/mL, the peak level (Cmax) was 282 ± 36.8 ng/mL and the time of peak concentration (Tmax) was determined as 6 ± 2.74 h. Also, in data set [7] (setting [10]), the half-life was 4.04 ± 2.65 h, the CL/F is 340 mL/min/kg, the MRT last came to 6.82 ± 1.94 h and the MRT inf was determined as 7.66 ± 2.01 h. Further, in data set [7] (setting [11]), the AUC(0-inf) was 5710 ± 744 ng·h/mL, the area under the curve AUC(0-t) was determined as 4730 ± 1290 ng·h/mL, the Cmax was 481 ± 33.3 ng/mL and the Tmax was found to be 4.4 ± 1.52 h. Also, in data set [7] (setting [11]), the half-life is 4.88 ± 2.91 h, the CL/F is 177 mL/min/kg, the MRT last was 6.87 ± 1.33 h and the MRT inf was 9.2 ± 3.59 h. Also, in data set [7] (setting [12]), the “AUC(0–t), group B relative to group A” value is 1.72 fold; the “AUC(0–∞), group B relative to group A” value was determined as 1.88 fold; the “CLz/F lower than group A” value is on record as 48%; the “Cmax, group B relative to group A” value was 1.70 fold. Moreover, in data set [8], the Michaelis constant (Km) stood at 2.2 µM.

As for `C[C@@H](c1ncncc1F)[C@](O)(Cn1cncn1)c1ccc(F)cc1F` [voriconazole], the half-maximal inhibitory concentration (IC50) at 40 min in data set [5] amounted to 325 µM; in data set [3] (setting [9]), 12.4 µM.
